These results are taken from patent US11753407B2, “Compounds for treating spinal muscular atrophy” (PTC Therapeutics, Inc., priority 2012, dated 2023).

Series [1] deals with Smn protein in SMA patient fibroblast cells (GM03813). Put plainly: Smn protein assay in cultured cells (SMN HTRF). The series is classed as cell-based, human. As to conditions: SMA patient fibroblast cells, 48 hours; for maximum fold (Fold) increase of Smn protein: 7-point concentration data, fold relative to vehicle control; for EC1.5x for Smn protein expression: 7-point concentration curve, SMN HTRF, concentration producing 1.5 times Smn protein vs DMSO vehicle control. A digest of the protocol:
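SMA patient fibroblasts (5,000/well, DMEM-10% FBS) treated 48 h at 37° C with 7-point, 3.16-fold compound series in triplicate; lysates read by SMN HTRF (665/620 nm ratio). Fold Smn increase over DMSO vehicle derived; EC1.5× is concentration giving 1.5-fold Smn, with maximum fold also reported.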
In general terms: TR-FRET usually uses a lanthanide donor and a delayed reading to cut background.

Series [2] deals with SMN2 minigene mRNA (SMN2-A minigene) in HEK293H cells. Briefly: SMN2 minigene mRNA splicing RT-qPCR assay in cultured cells. The series is classed as cell-based, human. As to conditions: Homo sapiens, HEK293-H; concentration increasing full length SMN2 mRNA 1.5-fold relative to vehicle-treated cells; HEK293H cells with SMN2-A minigene, 24 hours, 7-point concentration data; read-out: EC1.5x for production of full length SMN2 mRNA. A digest of the protocol: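 HEK293H cells stably carrying SMN2-A minigene treated with compounds (7-point, 3.16-fold dilutions, duplicates) for 24 h at 37 °C. Full-length exon 7-containing minigene mRNA measured by multiplex RT-qPCR with GAPDH, normalized and expressed relative to vehicle (modified ΔΔCt); EC1.5× is concentration giving 1.5-fold increase.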

In the case of `COc1ccc(-c2cc(=O)n3cc(N4CCCN(C)CC4)ccc3n2)cc1F` [Compound 166, 2-(3-fluoro-4-methoxyphenyl)-7-(4-methyl-1,4-diazepan-1-yl)-4H-pyrido[1,2-a]pyrimidin-4-one], the melting point is 176 to 178 °C. In addition, the “maximum fold (Fold) increase of Smn protein” value (shortened to “maximum fold (Fold) increase”) in series [1] was “** (a fold increase between >1.2 and ≤1.35 is indicated by two stars (**))”. In addition, the EC (1.5-fold increase) in series [2] lay within 0.3 to 1 µM.

The compound `COc1ncc(-c2cc(=O)n3cc(N4C[C@@H](C)N[C@@H](C)C4)ccc3n2)cc1F` [Compound 174, 7-[(3R,5S)-3,5-dimethylpiperazin-1-yl]-2-(5-fluoro-6-methoxypyridin-3-yl)-4H-pyrido[1,2-a]pyrimidin-4-one] returned a melting point of 160 to 165 °C. Moreover, in series [1], the “maximum fold (Fold) increase” value was “** (a fold increase between >1.2 and ≤1.35 is indicated by two stars (**))”. The EC (1.5-fold increase) in series [2] lay in the range of 1 to 3 µM.

For `Cc1cn2nc(-c3cc(=O)n4cc(N5CCC(N(C)CCO)CC5)cc(C)c4n3)cc2c(C)n1` [Compound 582, 2-(4,6-dimethylpyrazolo[1,5-a]pyrazin-2-yl)-7-{4-[(2-hydroxyethyl)(methyl)amino]piperidin-1-yl}-9-methyl-4H-pyrido[1,2-a]pyrimidin-4-one], the melting point was 250 to 259 °C. Further, in series [1], the “EC1.5x for Smn protein expression” value was “**** (an EC1.5x≤0.3 μM is indicated by four stars (****))” and the “maximum fold (Fold) increase” value is recorded as “***** (a fold increase >1.65 is indicated by five stars (*****))”. The EC (1.5-fold increase) in series [2] is < 0.1 µM.

As for `O=c1cc(-c2ccc3c(c2)OCO3)nc2ccc(N3CCNCC3)cn12` [Compound 18, 2-(1,3-benzodioxol-5-yl)-7-(piperazin-1-yl)-4H-pyrido[1,2-a]pyrimidin-4-one], the melting point was in the range of 198 to 201 °C. In series [1], the “EC1.5x for Smn protein expression” value was “** (an EC1.5× between >1 μM and ≤3 μM is indicated by two stars (**))”; the “maximum fold (Fold) increase” value is “**** (a fold increase between >1.5 and ≤1.65 is indicated by four stars (****))”. Moreover, in series [2], the EC (1.5-fold increase) was in the range of 0.3 to 1 µM.

As to `COc1ccc(-c2cc(=O)n3cc(C4=CCNCC4)c(C)cc3n2)cc1OC` [Compound 389, 2-(3,4-dimethoxyphenyl)-8-methyl-7-(1,2,3,6-tetrahydropyridin-4-yl)-4H-pyrido[1,2-a]pyrimidin-4-one], the melting point was 175 °C (dec.). Also, the “maximum fold (Fold) increase” value in series [1] was “** (a fold increase between >1.2 and ≤1.35 is indicated by two stars (**))”. Further, in series [2], the EC (1.5-fold increase) lay within 1 to 3 µM.

The compound `C[C@@H]1CN(c2ccc3nc(-c4ccc5c(c4)OCO5)cc(=O)n3c2)CCN1` [Compound 20, 2-(1,3-benzodioxol-5-yl)-7-[(3R)-3-methylpiperazin-1-yl]-4H-pyrido[1,2-a]pyrimidin-4-one] returned a melting point of 195 to 197 °C. In series [1], the “EC1.5x for Smn protein expression” value is “** (an EC1.5× between >1 μM and ≤3 μM is indicated by two stars (**))”; the “maximum fold (Fold) increase” value is “**** (a fold increase between >1.5 and ≤1.65 is indicated by four stars (****))”. The EC (1.5-fold increase) in series [2] fell in the range of 1 to 3 µM.

On to `Cc1nc2ccc(-c3cc(=O)n4cc(C5CCN(C)CC5)ccc4n3)cc2s1` [Compound 439, 2-(2-methyl-1,3-benzothiazol-6-yl)-7-(1-methylpiperidin-4-yl)-4H-pyrido[1,2-a]pyrimidin-4-one], for which the melting point was in the range of 240 to 242 °C. For the same compound, in series [1], the “EC1.5x for Smn protein expression” value was “** (an EC1.5× between >1 μM and ≤3 μM is indicated by two stars (**))”; the “maximum fold (Fold) increase” value was “*** (a fold increase between >1.35 and ≤1.5 is indicated by three stars (***))”. Besides, the EC (1.5-fold increase) in series [2] is 0.1 to 0.3 µM.

For `CCN1CCN(c2ccc3nc(-c4ccc5nc(C)oc5c4)cc(=O)n3c2)CC1` [Compound 202, 7-(4-ethylpiperazin-1-yl)-2-(2-methyl-1,3-benzoxazol-6-yl)-4H-pyrido[1,2-a]pyrimidin-4-one], the melting point is 212 to 216 °C. Moreover, in series [1], the “maximum fold (Fold) increase” value is “** (a fold increase between >1.2 and ≤1.35 is indicated by two stars (**))”. In addition, in series [2], the EC (1.5-fold increase) lay in the range of 0.3 to 1 µM.

Turning to `CCN1CCC(c2ccc3nc(-c4cc(C)c5nn(C)cc5c4)cc(=O)n3c2)CC1` [Compound 753, 2-(2,7-dimethyl-2H-indazol-5-yl)-7-(1-ethylpiperidin-4-yl)-4H-pyrido[1,2-a]pyrimidin-4-one], the melting point was 162 to 164 °C. For the same compound, in series [1], the “EC1.5x for Smn protein expression” value was “**** (an EC1.5x≤0.3 μM is indicated by four stars (****))” and the “maximum fold (Fold) increase” value was “***** (a fold increase >1.65 is indicated by five stars (*****))”. Moreover, in series [2], the EC (1.5-fold increase) was < 0.1 µM.

`Cc1cn2cc(-c3cc(=O)n4cc(N5CCN(C6CC6)[C@@H](C)C5)ccc4n3)cc(F)c2n1` [Compound 542, 7-[(3S)-4-cyclopropyl-3-methylpiperazin-1-yl]-2-(8-fluoro-2-methylimidazo[1,2-a]pyridin-6-yl)-4H-pyrido[1,2-a]pyrimidin-4-one] yielded a melting point of 242 to 246 °C. In addition, in series [1], the “EC1.5x for Smn protein expression” value is “*** (an EC1.5× between >0.3 μM and ≤1 μM is indicated by three stars (***))”; the “maximum fold (Fold) increase” value is on record as “***** (a fold increase >1.65 is indicated by five stars (*****))”. Also, the EC (1.5-fold increase) in series [2] is < 0.1 µM.

The compound `Cc1cn2cc(-c3cc(=O)n4cc(C5CCN(C(C)C)CC5)ccc4n3)ccc2n1` [Compound 554, 2-(2-methylimidazo[1,2-a]pyridin-6-yl)-7-[1-(propan-2-yl)piperidin-4-yl]-4H-pyrido[1,2-a]pyrimidin-4-one] registered a melting point of 218 to 220 °C. Further, in series [1], the “EC1.5x for Smn protein expression” value is given as “**** (an EC1.5x≤0.3 μM is indicated by four stars (****))” and the “maximum fold (Fold) increase” value is recorded as “***** (a fold increase >1.65 is indicated by five stars (*****))”. Also, the EC (1.5-fold increase) in series [2] fell in the range of 0.1 to 0.3 µM.

In the case of `CCc1nc(C)cn2nc(-c3cc(=O)n4cc(N5CCN(CC)[C@H](C)C5)ccc4n3)cc12` [Compound 630, 7-[(3R)-4-ethyl-3-methylpiperazin-1-yl]-2-(4-ethyl-6-methylpyrazolo[1,5-a]pyrazin-2-yl)-4H-pyrido[1,2-a]pyrimidin-4-one], the melting point lay in the range of 256 to 258 °C. For the same compound, in series [1], the “EC1.5x for Smn protein expression” value is “**** (an EC1.5x≤0.3 μM is indicated by four stars (****))” and the “maximum fold (Fold) increase” value is on record as “***** (a fold increase >1.65 is indicated by five stars (*****))”. Also, the EC (1.5-fold increase) in series [2] was < 0.1 µM.

`COc1ccc(-c2cc(=O)n3cc(N4CCN[C@@H](C)C4)ccc3n2)cc1` [Compound 12, 2-(4-methoxyphenyl)-7-[(3S)-3-methylpiperazin-1-yl]-4H-pyrido[1,2-a]pyrimidin-4-one] showed a melting point of 158 to 160 °C. In addition, the “maximum fold (Fold) increase” value in series [1] was “*** (a fold increase between >1.35 and ≤1.5 is indicated by three stars (***))”. Also, in series [2], the EC (1.5-fold increase) was 0.3 to 1 µM.

Regarding `Cc1cn2cc(-c3cc(=O)n4cc(N5CCNCC5)ccc4n3)cc(CO)c2n1` [Cpd 674, 2-[8-(hydroxymethyl)-2-methylimidazo[1,2-a]pyridin-6-yl]-7-(piperazin-1-yl)-4H-pyrido[1,2-a]pyrimidin-4-one], the melting point was > 320 °C. Also, in series [1], the “EC1.5x for Smn protein expression” value was “**** (an EC1.5x≤0.3 μM is indicated by four stars (****))” and the “maximum fold (Fold) increase” value is “***** (a fold increase >1.65 is indicated by five stars (*****))”. Also, the EC (1.5-fold increase) in series [2] was < 0.1 µM.

With `Cc1cn2nc(-c3cc(=O)n4cc(C5=C[C@H](C)N[C@@H](C)C5)ccc4n3)cc2c(C)n1` [Cpd 798, 2-(4,6-dimethylpyrazolo[1,5-a]pyrazin-2-yl)-7-[(2S,6S)-2,6-dimethyl-1,2,3,6-tetrahydropyridin-4-yl]-4H-pyrido[1,2-a]pyrimidin-4-one], the melting point was 228 to 231 °C. Besides, in series [1], the “EC1.5x for Smn protein expression” value is listed as “**** (an EC1.5x≤0.3 μM is indicated by four stars (****))” and the “maximum fold (Fold) increase” value is reported as “***** (a fold increase >1.65 is indicated by five stars (*****))”. Also, the EC (1.5-fold increase) in series [2] was < 0.1 µM.

Take `CCN1CCC(c2cc(C)c3nc(-c4ccc5c(cnn5C)c4)cc(=O)n3c2)CC1` [Compound 786, 7-(1-ethylpiperidin-4-yl)-9-methyl-2-(1-methyl-1H-indazol-5-yl)-4H-pyrido[1,2-a]pyrimidin-4-one]: the melting point was in the range of 236 to 240 °C. In series [1], the “EC1.5x for Smn protein expression” value is “*** (an EC1.5× between >0.3 μM and ≤1 μM is indicated by three stars (***))”; the “maximum fold (Fold) increase” value is “**** (a fold increase between >1.5 and ≤1.65 is indicated by four stars (****))”. Also, the EC (1.5-fold increase) in series [2] was 0.1 to 0.3 µM.

Compound `COc1ccc(-c2cc(=O)n3cc(O[C@H]4CCNC4)ccc3n2)cc1OC` [Compound 236, 2-(3,4-dimethoxyphenyl)-7-[(3S)-pyrrolidin-3-yloxy]-4H-pyrido[1,2-a]pyrimidin-4-one] registered a melting point of 164 to 166 °C. Further, in series [1], the “EC1.5x for Smn protein expression” value was “* (An EC1.5× for Smn protein expression between >3 μM and ≤10 μM is indicated by one star (*))”; the “maximum fold (Fold) increase” value was “*** (a fold increase between >1.35 and ≤1.5 is indicated by three stars (***))”. Further, the EC (1.5-fold increase) in series [2] was 1 to 3 µM.

A word on the melting point: it is the temperature, or range, at which the solid turns liquid.
